PubChem BioAssay AID248 (DTP/NCI, 2004)
“And” between values parts separate entries of the source, which are not always exact repeats. Equal values may be shown once. Inconclusive results and toxic doses are left out. Rule as the data show it: active = T/C of 150% or more; inactive = T/C below 125%.

System: L1210 leukemia ip in BDF1 mice, survival T/C
Experiment: NCI In Vivo Anticancer Drug Screen. Data for tumor model L1210 Leukemia (intraperitoneal) in B6D2F1 (BDF1) mice
Conditions: higher = longer survival
Method in brief: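 In this screen, tumor-bearing mice given compound are compared to those given vehicle, and their survival values are reported as a treated-to-control quotient.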

[1] = endpoint: mean survival time, dose: 100.0 mg/kg/injection, schedule: Q01DX001 (ip), vehicle: Klucel (hydroxypropylcellulose) (HPC)
[2] = endpoint: mean survival time, dose: 200.0 mg/kg/injection, schedule: Q01DX001 (ip), vehicle: Klucel (hydroxypropylcellulose) (HPC)
[3] = endpoint: mean survival time, dose: 400.0 mg/kg/injection, schedule: Q01DX001 (ip), vehicle: Klucel (hydroxypropylcellulose) (HPC)
[4] = endpoint: mean survival time, dose: 100.0 mg/kg/injection, schedule: Q01DX001 (ip), vehicle: carboxymethylcellulose (CMC)
[5] = endpoint: mean survival time, dose: 100.0 mg/kg/injection, schedule: Q01DX009 (ip), vehicle: Klucel (hydroxypropylcellulose) (HPC)
[6] = endpoint: mean survival time, dose: 100.0 mg/kg/injection, schedule: Q04DX003 (ip), vehicle: Klucel (hydroxypropylcellulose) (HPC)
[7] = endpoint: mean survival time, dose: 200.0 mg/kg/injection, schedule: Q01DX009 (ip), vehicle: Klucel (hydroxypropylcellulose) (HPC)
[8] = endpoint: mean survival time, dose: 200.0 mg/kg/injection, schedule: Q04DX003 (ip), vehicle: Klucel (hydroxypropylcellulose) (HPC)
[9] = endpoint: mean survival time, dose: 50.0 mg/kg/injection, schedule: Q01DX009 (ip), vehicle: saline with Tween-80
[10] = endpoint: mean survival time, dose: 100.0 mg/kg/injection, schedule: Q01DX009 (ip), vehicle: saline with Tween-80
[11] = endpoint: mean survival time, dose: 400.0 mg/kg/injection, schedule: Q04DX003 (ip), vehicle: Klucel (hydroxypropylcellulose) (HPC)
[12] = endpoint: mean survival time, dose: 100.0 mg/kg/injection, schedule: Q01DX001 (ip), vehicle: saline
[13] = endpoint: mean survival time, dose: 200.0 mg/kg/injection, schedule: Q01DX001 (ip), vehicle: saline
[14] = endpoint: mean survival time, dose: 100.0 mg/kg/injection, schedule: Q04DX002 (ip), vehicle: Klucel (hydroxypropylcellulose) (HPC)
[15] = endpoint: mean survival time, dose: 200.0 mg/kg/injection, schedule: Q04DX002 (ip), vehicle: Klucel (hydroxypropylcellulose) (HPC)
[16] = endpoint: mean survival time, dose: 400.0 mg/kg/injection, schedule: Q04DX002 (ip), vehicle: Klucel (hydroxypropylcellulose) (HPC)
[17] = endpoint: mean survival time, dose: 200.0 mg/kg/injection, schedule: Q01DX009 (ip), vehicle: saline with Tween-80
[18] = endpoint: mean survival time, dose: 400.0 mg/kg/injection, schedule: Q01DX001 (ip), vehicle: saline

Measured: T/C

COc1cccc2c1C(=O)c1c(O)c3c(c(O)c1C2=O)C[C@@](O)(C(C)=O)C[C@@H]3OC1CC(NC(C)=O)C(O)C(C)O1 (stereo partly specified)
inactive: endpoint: mean survival time, dose: 0.63 mg/kg/injection, schedule: Q01DX001 (ip), vehicle: other 101 % of control | endpoint: mean survival time, dose: 1.25 mg/kg/injection, schedule: Q01DX001 (ip), vehicle: other 103 % of control | endpoint: mean survival time, dose: 1.9 mg/kg/injection, schedule: Q01DX009 (ip), vehicle: saline 103 % of control | endpoint: mean survival time, dose: 2.5 mg/kg/injection, schedule: Q01DX001 (ip), vehicle: other 107 % of control | endpoint: mean survival time, dose: 3.8 mg/kg/injection, schedule: Q01DX009 (ip), vehicle: saline 103 % of control | endpoint: mean survival time, dose: 5.0 mg/kg/injection, schedule: Q01DX001 (ip), vehicle: other 106 % of control | endpoint: mean survival time, dose: 7.5 mg/kg/injection, schedule: Q01DX009 (ip), vehicle: saline 111 % of control | endpoint: mean survival time, dose: 10.0 mg/kg/injection, schedule: Q01DX001 (ip), vehicle: other 111 % of control | endpoint: mean survival time, dose: 10.0 mg/kg/injection, schedule: Q01DX001 (ip), vehicle: saline 114 % of control | endpoint: mean survival time, dose: 20.0 mg/kg/injection, schedule: Q01DX001 (ip), vehicle: other 123 % of control | endpoint: mean survival time, dose: 20.0 mg/kg/injection, schedule: Q01DX001 (ip), vehicle: saline 111 % of control | endpoint: mean survival time, dose: 40.0 mg/kg/injection, schedule: Q01DX001 (ip), vehicle: other 122 % of control | endpoint: mean survival time, dose: 40.0 mg/kg/injection, schedule: Q01DX001 (ip), vehicle: saline 124 % of control | endpoint: mean survival time, dose: 160.0 mg/kg/injection, schedule: Q01DX001 (ip), vehicle: saline 122 % of control | endpoint: mean survival time, dose: 320.0 mg/kg/injection, schedule: Q01DX001 (ip), vehicle: saline 113 % of control | endpoint: median survival time, dose: 75.0 mg/kg/injection, schedule: Q01DX001 (ip), vehicle: propolene glycol 122 % of control and 124 % of control | endpoint: median survival time, dose: 400.0 mg/kg/injection, schedule: Q01DX001 (ip), vehicle: propolene glycol 98 % of control and 88 % of control

O=c1oc2ccc(F)cc2c2ccccc12
inactive: [1] 92 % of control | [2] 103 % of control | [3] 90 % of control

CCOc1ccc2c(ccc(/C=C\c3cc(C)c4cccnc4c3O)[n+]2C)c1
inactive: endpoint: mean survival time, dose: 25.0 mg/kg/injection, schedule: Q01DX001 (ip), vehicle: carboxymethylcellulose (CMC) 104 % of control | endpoint: mean survival time, dose: 50.0 mg/kg/injection, schedule: Q01DX001 (ip), vehicle: carboxymethylcellulose (CMC) 109 % of control | [4] 93 % of control

CCOC(=O)c1ccc(OC(=O)Nc2ccc(Cl)c([N+](=O)[O-])c2)cc1
inactive: endpoint: mean survival time, dose: 50.0 mg/kg/injection, schedule: Q01DX009 (ip), vehicle: Klucel (hydroxypropylcellulose) (HPC) 94 % of control | [5] 90 % of control | [6] 100 % of control | [7] 92 % of control | [8] 94 % of control

C#CC(CC(C)CC(C)(C)C)N(C)C (stereo unspecified)
inactive: endpoint: mean survival time, dose: 25.0 mg/kg/injection, schedule: Q01DX009 (ip), vehicle: saline with Tween-80 92 % of control | [9] 92 % of control | [10] 101 % of control

CCCCC(CC)C(O)C1CCCCC1O (stereo unspecified)
inactive: [5] 102 % of control | [6] 101 % of control | [7] 96 % of control | [8] 96 % of control | endpoint: mean survival time, dose: 400.0 mg/kg/injection, schedule: Q01DX009 (ip), vehicle: Klucel (hydroxypropylcellulose) (HPC) 86 % of control | [11] 102 % of control

CC1(C)OC(O)C(C(O)C(O)C(O)C(=O)O)O1 (stereo unspecified)
inactive: endpoint: mean survival time, dose: 100.0 mg/kg/injection, schedule: Q04DX002 (ip), vehicle: saline 98 % of control | endpoint: mean survival time, dose: 200.0 mg/kg/injection, schedule: Q04DX002 (ip), vehicle: saline 109 % of control

CCn1ncc2ccccc2c1=O
inactive: [12] 96 % of control | [13] 97 % of control

O=C(O)c1cc(Br)cc(I)c1Br
inactive: [14] 105 % of control | [15] 117 % of control | [16] 105 % of control

CSc1ccc(NC(=O)NCCCCCCNC(=O)Nc2ccc(SC)cc2)cc1
inactive: [9] 93 % of control | [10] 96 % of control | [17] 90 % of control

O=c1[nH]c2c(c(=O)[nH]1)CCCCC2
inactive: [14] 95 % of control | [15] 89 % of control | [16] 92 % of control

CO/C(Cc1cc(O)cc(O)c1)=N\N
inactive: endpoint: mean survival time, dose: 100.0 mg/kg/injection, schedule: Q04DX003 (ip), vehicle: saline with Tween-80 93 % of control | endpoint: mean survival time, dose: 200.0 mg/kg/injection, schedule: Q04DX003 (ip), vehicle: saline with Tween-80 92 % of control | endpoint: mean survival time, dose: 400.0 mg/kg/injection, schedule: Q04DX003 (ip), vehicle: saline with Tween-80 101 % of control

Nc1nc(Cl)c(N=Nc2ccccc2)c(=O)[nH]1
inactive: endpoint: mean survival time, dose: 25.0 mg/kg/injection, schedule: Q01DX009 (ip), vehicle: carboxymethylcellulose (CMC) 97 % of control and 98 % of control | endpoint: mean survival time, dose: 50.0 mg/kg/injection, schedule: Q01DX009 (ip), vehicle: carboxymethylcellulose (CMC) 93 % of control and 90 % of control | [4] 95 % of control and 102 % of control | endpoint: mean survival time, dose: 100.0 mg/kg/injection, schedule: Q04DX002 (ip), vehicle: carboxymethylcellulose (CMC) 97 % of control and 89 % of control | endpoint: mean survival time, dose: 100.0 mg/kg/injection, schedule: Q04DX003 (ip), vehicle: carboxymethylcellulose (CMC) 100 % of control and 108 % of control | endpoint: mean survival time, dose: 200.0 mg/kg/injection, schedule: Q01DX001 (ip), vehicle: carboxymethylcellulose (CMC) 98 % of control and 109 % of control | endpoint: mean survival time, dose: 200.0 mg/kg/injection, schedule: Q04DX002 (ip), vehicle: carboxymethylcellulose (CMC) 93 % of control | endpoint: mean survival time, dose: 200.0 mg/kg/injection, schedule: Q04DX003 (ip), vehicle: carboxymethylcellulose (CMC) 106 % of control and 113 % of control | endpoint: mean survival time, dose: 400.0 mg/kg/injection, schedule: Q01DX001 (ip), vehicle: carboxymethylcellulose (CMC) 95 % of control and 98 % of control | endpoint: mean survival time, dose: 400.0 mg/kg/injection, schedule: Q04DX002 (ip), vehicle: carboxymethylcellulose (CMC) 93 % of control and 98 % of control | endpoint: mean survival time, dose: 400.0 mg/kg/injection, schedule: Q04DX003 (ip), vehicle: carboxymethylcellulose (CMC) 100 % of control and 106 % of control

O=S(=O)(CC(O)(c1ccccc1)c1ccccc1)CC(O)(c1ccccc1)c1ccccc1
inactive: endpoint: mean survival time, dose: 50.0 mg/kg/injection, schedule: Q01DX001 (ip), vehicle: saline 93 % of control | [12] 91 % of control | [13] 93 % of control | [18] 87 % of control

CCC(=O)c1ccc(N2CCCCC2)cc1
inactive: [14] 103 % of control | [15] 89 % of control

Cc1ccc(NC(=O)c2ccc(Cl)cc2Cl)cc1C
inactive: [1] 90 % of control | [10] 106 % of control | [6] 108 % of control | [2] 90 % of control | [17] 97 % of control | [8] 93 % of control | [3] 92 % of control | endpoint: mean survival time, dose: 400.0 mg/kg/injection, schedule: Q01DX009 (ip), vehicle: saline with Tween-80 100 % of control | [11] 94 % of control

CC(C)(C)C(=O)Nc1n[nH]c(C#N)c1C#N
inactive: endpoint: mean survival time, dose: 50.0 mg/kg/injection, schedule: Q04DX002 (ip), vehicle: other 95 % of control | endpoint: mean survival time, dose: 100.0 mg/kg/injection, schedule: Q04DX002 (ip), vehicle: other 106 % of control | endpoint: mean survival time, dose: 200.0 mg/kg/injection, schedule: Q04DX002 (ip), vehicle: other 113 % of control

CCCCCCCCCCCC(=O)NN
inactive: endpoint: mean survival time, dose: 18.8 mg/kg/injection, schedule: Q01DX009 (ip), vehicle: carboxymethylcellulose (CMC) 105 % of control | endpoint: mean survival time, dose: 37.5 mg/kg/injection, schedule: Q01DX009 (ip), vehicle: carboxymethylcellulose (CMC) 96 % of control | endpoint: mean survival time, dose: 75.0 mg/kg/injection, schedule: Q01DX009 (ip), vehicle: carboxymethylcellulose (CMC) 109 % of control and 114 % of control | [12] 98 % of control | [13] 104 % of control | [18] 106 % of control

Nc1cc(Nc2cccc(Cl)c2)nc(N)n1
inactive: [4] 94 % of control

CCCC/C=C(/C)C1(CC)C(=O)NC(=O)NC1=O
inactive: endpoint: mean survival time, dose: 75.0 mg/kg/injection, schedule: Q01DX001 (ip), vehicle: saline 100 % of control and 98 % of control | endpoint: mean survival time, dose: 150.0 mg/kg/injection, schedule: Q01DX001 (ip), vehicle: saline 93 % of control and 102 % of control
